pIC50: −log10 of the molar value.

These results are taken from patent US6302837A, “Benzothiophene, benzofuran and indole compounds” (Adir et Compagnie, priority 1999, dated 2001).

The experiment concerns the target recombinant active human PAI-1 (Homo sapiens, UniProt P05121). Put plainly: Inhibition of the activity of PAI-1 in vitro (fibrin clot breakdown, turbidity). In kind it is biochemical. Conditions: absorbance two hours after start of fibrin formation, 50 mM phosphate buffer pH 7.4, tissue plasminogen activator, fibrinogen, thrombin, read-out: IC50 (concentration of product that inhibits PAI-1 activity by 50%). How it is done: Inhibition of the activity of PAI-1 was effected in vitro in microplate wells in which the formation and then breakdown of a fibrin clot is monitored continuously by measurement of its turbidity using a spectrophotometer. To do so, using, as diluent, a 50 mM phosphate buffer pH 7.4 containing 0.05% of bovine serum albumin, […] of the inhibitor is placed in the presence of 50 μl of a 2 nM solution of recombinant active human PAI-1 for 5 minutes at ambient temperature. 50 μl of a 0.42 nM solution of tissue plasminogen activator, 50 μl of an 800 nM solution of human plasminogen and 50 μl of a 2 g/liter solution of fibrinogen are then added and the fibrin formation is triggered by the addition of 50 μl of 14 nM purified human thrombin. In the absence of the product, inhibition of breakdown two hours after the start of fibrin formation is measured by the absorbance of the clot and represents 100% of the PAI-1 activity. In the absence of the product and of PAI-1, breakdown is measured by the absorbance of the broken-down clot and represents 0% of the PAI-1 activity. The concentration of product that inhibits PAI-1 activity by 50% is determined by measuring the absorbance of the clot two hours after fibrin formation in the presence of PAI-1 and of an increasing concentration of the product.

Chain of recombinant active human PAI-1 (P05121 24-402): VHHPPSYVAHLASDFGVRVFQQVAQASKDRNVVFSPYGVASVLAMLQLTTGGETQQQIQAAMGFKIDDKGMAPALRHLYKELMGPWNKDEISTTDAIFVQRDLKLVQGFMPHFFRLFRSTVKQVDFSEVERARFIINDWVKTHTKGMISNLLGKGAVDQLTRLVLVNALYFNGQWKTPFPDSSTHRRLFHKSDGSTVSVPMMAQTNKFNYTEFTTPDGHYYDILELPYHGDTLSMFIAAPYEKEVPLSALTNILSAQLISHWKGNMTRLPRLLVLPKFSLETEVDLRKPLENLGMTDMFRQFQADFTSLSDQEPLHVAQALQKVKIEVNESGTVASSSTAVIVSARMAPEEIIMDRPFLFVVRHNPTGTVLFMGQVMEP

Take `O=C(O)/C(=C/c1sc2cc(OCc3ccc(-c4ccccc4)cc3)c(OCc3ccc(-c4ccccc4)cc3)cc2c1Oc1ccccc1)c1ccncc1` [Example 26, (E)-3-[5,6-Bis([1,1'-biphenyl]-4-ylmethoxy)-3-phenoxy-benzo[b]thiophen-2-yl]-2-(4-pyridyl)-2-propenoic acid]: the pIC50 was 7.22.

As to `O=C(O)/C(=C/c1sc2cc(OCc3ccc(-c4ccccc4)cc3)c(OCc3ccc(-c4ccccc4)cc3)cc2c1Oc1cccnc1)c1ccncc1` [Example 10], the pIC50 was 6.28.

Regarding `O=C(O)/C(=C/c1sc2cc(OCc3ccc(-c4ccccc4)cc3)c(OCc3ccc(-c4ccccc4)cc3)cc2c1Oc1ccc(Cl)cc1)c1ccncc1` [Example 2, (E)-3-[5,6-Bis-([1,1'-biphenyl]-4-ylmethoxy)-3-(4-chlorophenoxy)-benzo[b]thiophen-2-yl]-2-(4-pyridyl)2-propenoic acid], the pIC50 is 6.89.
